Laboratory results published in the OligoGym collection.
“And” between values parts separate entries of the source, which are not always exact repeats. Equal values may be shown once. HELM strings list units from the 5' end as sugar, base in round brackets, then linkage (d deoxyribose, r ribose, m 2'-O-methyl, p phosphodiester). Strings are as the collection lists them; they lack the last nucleoside at the 3' end of the tested compound. [moe] = 2'-O-(2-methoxyethyl) (MOE); [sp] = phosphorothioate linkage; [m5C] = 5-methylcytosine

Target: SMN2
Assay: mouse, dose not given
Settings: ASO

RNA1{[moe](T)[sp].[moe]([m5C])[sp].[moe](A)[sp].[moe]([m5C])[sp].[moe](T)[sp].[moe](T)[sp].[moe](T)[sp].[moe]([m5C])[sp].[moe](A)[sp].[moe](T)[sp].[moe](A)[sp].[moe](A)[sp].[moe](T)[sp].[moe](G)[sp].[moe]([m5C])[sp].[moe](T)[sp].[moe](G)[sp].[moe](G)[sp].[moe]([m5C])}$$$$ (last 3' nucleoside missing)
3 h FOB score: 0 score 0-7

RNA1{[moe](T)[sp].[moe]([m5C])[sp].[moe](A)[sp].[moe]([m5C])[sp].[moe](T)[sp].[moe](T)[sp].[moe](T)[sp].[moe]([m5C])[sp].[moe](A)[sp].[moe](T)[sp].[moe](A)[sp].[moe](A)[sp].[moe](T)[sp].[moe](G)[sp].[moe]([m5C])[sp].[moe](T)[sp].[moe](G)[sp].[moe](G)p.[moe](A)}$$$$ (last 3' nucleoside missing)
3 h FOB score: 3.75 score 0-7 and 4 score 0-7 (3×)

RNA1{[moe](T)[sp].[moe]([m5C])[sp].[moe](A)[sp].[moe]([m5C])[sp].[moe](T)[sp].[moe](T)[sp].[moe](T)[sp].[moe]([m5C])[sp].[moe](A)[sp].[moe](T)[sp].[moe](A)[sp].[moe](A)[sp].[moe](T)[sp].[moe](G)[sp].[moe]([m5C])[sp].[moe](T)[sp].[moe](G)[sp].[moe](G)p.[moe](T)}$$$$ (last 3' nucleoside missing)
3 h FOB score: 4 score 0-7

RNA1{[moe](T)[sp].[moe]([m5C])[sp].[moe](A)[sp].[moe]([m5C])[sp].[moe](T)[sp].[moe](T)[sp].[moe](T)[sp].[moe]([m5C])[sp].[moe](A)[sp].[moe](T)[sp].[moe](A)[sp].[moe](A)[sp].[moe](T)[sp].[moe](G)[sp].[moe]([m5C])[sp].[moe](T)[sp].[moe](G)[sp].[moe](G)p.d(A)}$$$$ (last 3' nucleoside missing)
3 h FOB score: 4 score 0-7 (2×) and 4.25 score 0-7 (2×) and 3.75 score 0-7 (2×)

RNA1{[moe](T)[sp].[moe]([m5C])[sp].[moe](A)[sp].[moe]([m5C])[sp].[moe](T)[sp].[moe](T)[sp].[moe](T)[sp].[moe]([m5C])[sp].[moe](A)[sp].[moe](T)[sp].[moe](A)[sp].[moe](A)[sp].[moe](T)[sp].[moe](G)[sp].[moe]([m5C])[sp].[moe](T)[sp].[moe](G)[sp].[moe](G)p.d([m5C])}$$$$ (last 3' nucleoside missing)
3 h FOB score: 4 score 0-7 (2×) and 3.75 score 0-7 (2×) and 3.5 score 0-7

RNA1{[moe](T)[sp].[moe]([m5C])[sp].[moe](A)[sp].[moe]([m5C])[sp].[moe](T)[sp].[moe](T)[sp].[moe](T)[sp].[moe]([m5C])[sp].[moe](A)[sp].[moe](T)[sp].[moe](A)[sp].[moe](A)[sp].[moe](T)[sp].[moe](G)[sp].[moe]([m5C])p.[moe](T)[sp].[moe](G)[sp].[moe](G)}$$$$ (last 3' nucleoside missing)
3 h FOB score: 2.25 score 0-7 (2×) and 2.5 score 0-7 and 2 score 0-7

RNA1{[moe](T)[sp].[moe]([m5C])[sp].[moe](A)[sp].[moe]([m5C])[sp].[moe](T)[sp].[moe](T)[sp].[moe](T)[sp].[moe]([m5C])[sp].[moe](A)[sp].[moe](T)[sp].[moe](A)[sp].[moe](A)[sp].[moe](T)[sp].[moe](G)[sp].[moe]([m5C])p.[moe](T)[sp].[moe](G)}$$$$ (last 3' nucleoside missing)
3 h FOB score: 2.75 score 0-7

RNA1{[moe](T)[sp].[moe]([m5C])[sp].[moe](A)[sp].[moe]([m5C])[sp].[moe](T)[sp].[moe](T)[sp].[moe](T)[sp].[moe]([m5C])[sp].[moe](A)[sp].[moe](T)[sp].[moe](A)[sp].[moe](A)[sp].[moe](T)[sp].[moe](G)p.[moe]([m5C])[sp].[moe](T)[sp].[moe](G)}$$$$ (last 3' nucleoside missing)
3 h FOB score: 3.75 score 0-7

RNA1{[moe](T)[sp].[moe]([m5C])[sp].[moe](A)[sp].[moe]([m5C])[sp].[moe](T)[sp].[moe](T)[sp].[moe](T)[sp].[moe]([m5C])[sp].[moe](A)[sp].[moe](T)[sp].[moe](A)[sp].[moe](A)[sp].[moe](T)[sp].[moe](G)p.[moe]([m5C])p.[moe](T)[sp].[moe](G)}$$$$ (last 3' nucleoside missing)
3 h FOB score: 3.5 score 0-7

RNA1{[moe](T)[sp].[moe]([m5C])[sp].[moe](A)[sp].[moe]([m5C])[sp].[moe](T)[sp].[moe](T)[sp].[moe](T)[sp].[moe]([m5C])[sp].[moe](A)[sp].[moe](T)[sp].[moe](A)[sp].[moe](A)[sp].[moe](T)p.[moe](G)[sp].[moe]([m5C])p.[moe](T)[sp].[moe](G)[sp].[moe](G)}$$$$ (last 3' nucleoside missing)
3 h FOB score: 1 score 0-7 and 2 score 0-7 and 1.25 score 0-7 (2×)

RNA1{[moe](T)[sp].[moe]([m5C])[sp].[moe](A)[sp].[moe]([m5C])[sp].[moe](T)[sp].[moe](T)[sp].[moe](T)[sp].[moe]([m5C])[sp].[moe](A)[sp].[moe](T)[sp].[moe](A)[sp].[moe](A)[sp].[moe](T)p.[moe](G)[sp].[moe]([m5C])p.[moe](T)[sp].[moe](G)}$$$$ (last 3' nucleoside missing)
3 h FOB score: 3 score 0-7

RNA1{[moe](T)[sp].[moe]([m5C])[sp].[moe](A)[sp].[moe]([m5C])[sp].[moe](T)[sp].[moe](T)[sp].[moe](T)[sp].[moe]([m5C])[sp].[moe](A)[sp].[moe](T)[sp].[moe](A)[sp].[moe](A)p.[moe](T)[sp].[moe](G)[sp].[moe]([m5C])[sp].[moe](T)[sp].[moe](G)}$$$$ (last 3' nucleoside missing)
3 h FOB score: 3.5 score 0-7

RNA1{[moe](T)[sp].[moe]([m5C])[sp].[moe](A)[sp].[moe]([m5C])[sp].[moe](T)[sp].[moe](T)[sp].[moe](T)[sp].[moe]([m5C])[sp].[moe](A)[sp].[moe](T)[sp].[moe](A)[sp].[moe](A)p.[moe](T)[sp].[moe](G)p.[moe]([m5C])[sp].[moe](T)[sp].[moe](G)}$$$$ (last 3' nucleoside missing)
3 h FOB score: 2.5 score 0-7

RNA1{[moe](T)[sp].[moe]([m5C])[sp].[moe](A)[sp].[moe]([m5C])[sp].[moe](T)[sp].[moe](T)[sp].[moe](T)[sp].[moe]([m5C])[sp].[moe](A)[sp].[moe](T)[sp].[moe](A)p.[moe](A)[sp].[moe](T)[sp].[moe](G)p.[moe]([m5C])[sp].[moe](T)[sp].[moe](G)}$$$$ (last 3' nucleoside missing)
3 h FOB score: 2 score 0-7

RNA1{[moe](T)[sp].[moe]([m5C])[sp].[moe](A)[sp].[moe]([m5C])[sp].[moe](T)[sp].[moe](T)[sp].[moe](T)[sp].[moe]([m5C])[sp].[moe](A)[sp].[moe](T)p.[moe](A)[sp].[moe](A)[sp].[moe](T)[sp].[moe](G)[sp].[moe]([m5C])[sp].[moe](T)[sp].[moe](G)}$$$$ (last 3' nucleoside missing)
3 h FOB score: 3 score 0-7

RNA1{[moe](T)[sp].[moe]([m5C])[sp].[moe](A)[sp].[moe]([m5C])[sp].[moe](T)[sp].[moe](T)[sp].[moe](T)[sp].[moe]([m5C])[sp].[moe](A)[sp].[moe](T)p.[moe](A)[sp].[moe](A)[sp].[moe](T)[sp].[moe](G)p.[moe]([m5C])[sp].[moe](T)[sp].[moe](G)}$$$$ (last 3' nucleoside missing)
3 h FOB score: 3.5 score 0-7
